These are literature values, as cited in patent US6506600B2, “Secreting products from skin by adeno-associated virus (AAV) gene transfer” (University of Arkansas, priority 2000, dated 2003).

In one data set the test system is neutrophil count. To be noted: patients with neutropenia due to chemotherapy; initial dose 5 microg/kg/day.
The test system of a further data set is neutropenia. To be noted: neonates <32 weeks gestation; 10 μg/kg/d subcutaneous for 5 days.
The subject of data set [1] is pulmonary alveolar proteinosis. Particulars: four PAP patients; subcutaneous once daily for 12 wk, 3 to 9 μg/kg/d.

For the substance “granulocyte macrophage colony stimulating factor [GM-CSF]”, the “rise of neutrophil count (median)” value with neutrophil count is 6.6 fold. For the same substance, in the data set with neutropenia, the effect on neutropenia entry is listed as “completely abolished neutropenia”. In data set [1], the “symptomatic, physiologic and radiographic response” value was “Three of the four patients experienced symptomatic, physiologic, and radiographic improvement”. The serum half-life (serum) is 8 h.

For hGH: human growth hormone, 22 kDa, the t1/2 (in vivo) was 4 min.
